pIC50: −log10 of the molar value.
Biological target: Full length human CDC7 protein co-expressed with DBF4 (Homo sapiens (Human), UniProt O00311)
Experiment: CDC7 kinase biochemical assay (ADP-Glo, PDKtide substrate)
Conditions: 0.1 nM CDC7/DBF4, 1 uM ATP, 10 uM PDKtide, 4 h
Description: CDC7 Kinase Biochemical Assay Protocol:
Full length human CDC7 protein co-expressed with DBF4 was purchased from SignalChem (China). CDC7 kinase activity was determined with PDKtide (SignalChem) as a substrate and by measuring ADP production using the ADP-Glo™ Kinase Assay kit (Promega) following the manufacturers instructions. The kinase reaction was performed using the following conditions: Buffer: 40 mM Tris pH 7.5, 20 mM MgCl2, 0.1 mg/ml BSA and 50 uM DTT. Final reaction mix contained 0.1 nM CDC7/DBF4, 1 uM ATP and 10 uM PDKtide. The kinase reaction time was 4 h. The ADP-Glo signal was measured using an EnVision plate reader (PerkinELmer).
Percent inhibition of CDC7 kinase activity was calculated based on the following formula:
[formula] • Ssample: the signal of compounds • SHigh Ctrl: the signal of high control (DMSO) • SLow Ctrl: the signal of low control (positive control CDC7 inhibitor)

Full length human CDC7 protein co-expressed with DBF4, sequence (O00311 whole entry): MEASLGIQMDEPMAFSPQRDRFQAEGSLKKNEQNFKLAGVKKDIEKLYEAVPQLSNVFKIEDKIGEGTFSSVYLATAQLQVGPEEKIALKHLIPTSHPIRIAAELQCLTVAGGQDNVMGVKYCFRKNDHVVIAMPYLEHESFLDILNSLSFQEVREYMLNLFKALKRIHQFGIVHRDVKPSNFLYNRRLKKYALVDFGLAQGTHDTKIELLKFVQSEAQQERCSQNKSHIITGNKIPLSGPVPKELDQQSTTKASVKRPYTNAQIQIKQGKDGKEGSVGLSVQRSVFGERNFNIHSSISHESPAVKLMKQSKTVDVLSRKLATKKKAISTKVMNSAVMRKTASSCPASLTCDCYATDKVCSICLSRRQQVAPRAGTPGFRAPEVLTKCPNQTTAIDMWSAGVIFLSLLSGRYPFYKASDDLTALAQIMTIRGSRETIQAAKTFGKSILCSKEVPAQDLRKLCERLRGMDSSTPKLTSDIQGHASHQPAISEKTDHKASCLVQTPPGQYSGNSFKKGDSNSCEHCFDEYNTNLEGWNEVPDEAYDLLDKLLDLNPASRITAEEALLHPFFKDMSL
Full length human CDC7 protein co-expressed with DBF4, sequence (Q9UBU7 whole entry partner): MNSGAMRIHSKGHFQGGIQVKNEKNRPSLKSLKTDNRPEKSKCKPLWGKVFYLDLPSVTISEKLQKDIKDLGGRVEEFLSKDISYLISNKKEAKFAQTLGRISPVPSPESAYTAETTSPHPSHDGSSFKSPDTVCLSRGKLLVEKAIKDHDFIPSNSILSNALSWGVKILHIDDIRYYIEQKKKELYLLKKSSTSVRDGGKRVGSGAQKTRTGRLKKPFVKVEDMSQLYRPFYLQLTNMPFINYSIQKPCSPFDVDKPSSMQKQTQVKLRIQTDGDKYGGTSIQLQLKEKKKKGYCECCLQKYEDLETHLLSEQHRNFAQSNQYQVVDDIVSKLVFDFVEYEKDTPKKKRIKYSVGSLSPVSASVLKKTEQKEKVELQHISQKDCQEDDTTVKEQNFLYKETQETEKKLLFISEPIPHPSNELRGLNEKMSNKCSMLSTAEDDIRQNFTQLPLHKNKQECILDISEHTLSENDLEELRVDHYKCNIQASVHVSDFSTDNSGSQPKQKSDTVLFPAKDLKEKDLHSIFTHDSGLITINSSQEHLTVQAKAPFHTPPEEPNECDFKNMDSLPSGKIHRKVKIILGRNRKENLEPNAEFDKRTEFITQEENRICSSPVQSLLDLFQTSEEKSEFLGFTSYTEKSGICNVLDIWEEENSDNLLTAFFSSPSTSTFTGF

pIC50	SMILES
≤ 8.00	COc1ccc(CNCc2[nH]c(=O)c3sc(-c4ccncc4)c4c3c2CCCO4)cc1 [Example 16, 5-(((4-methoxybenzyl)amino)methyl)-1-(pyridin-4-yl)-4,6,7,8-tetrahydro-3H-9-oxa-2-thia-4-azabenzo[cd]azulen-3-one]
8.00 to 9.00	NCc1[nH]c(=O)c2sc(-c3cn[nH]c3)c3c2c1CCCO3 [Example 17, 7-(aminomethyl)-2-(1H-pyrazol-4-yl)-12-oxa-3-thia-6-azatricyclo[6.4.1.04,13]trideca-1,4(13),7-trien-5-one]
> 9.00	O=c1[nH]c(Cn2cccn2)c2c3c(c(-c4cn[nH]c4)sc13)OCCC2 [Example 18, 2-(1H-pyrazol-4-yl)-7-(pyrazol-1-ylmethyl)-12-oxa-3-thia-6-azatricyclo[6.4.1.04,13]trideca-1,4(13),7-trien-5-one]
> 9.00	O=c1[nH]c(Cn2cccn2)c2c3c(c(-c4ccncn4)sc13)OCCC2 [Example 19, 7-(pyrazol-1-ylmethyl)-2-pyrimidin-4-yl-12-oxa-3-thia-6-azatricyclo[6.4.1.0^4,13]trideca-1,4(13),7-trien-5-one]
> 9.00	Cc1n[nH]cc1-c1sc2c(=O)[nH]c(Cn3cccn3)c3c2c1OCCC3 [Example 20, 2-(3-methyl-1H-pyrazol-4-yl)-7-(pyrazol-1-ylmethyl)-12-oxa-3-thia-6-azatricyclo[6.4.1.0^4,13]trideca-1,4(13),7-trien-5-one]
> 9.00	O=c1[nH]c(Cn2cccn2)c2c3c(c(-c4ccncc4)sc13)OCCC2 [Example 21, 7-(pyrazol-1-ylmethyl)-2-(4-pyridyl)-12-oxa-3-thia-6-azatricyclo[6.4.1.0^4,13]trideca-1,4(13),7-trien-5-one]
> 9.00	O=c1[nH]c(Cn2ccnc2)c2c3c(c(-c4cn[nH]c4)sc13)OCCC2 [Example 22, 7-(imidazol-1-ylmethyl)-2-(1H-pyrazol-4-yl)-12-oxa-3-thia-6-azatricyclo[6.4.1.0^4,13]trideca-1,4(13),7-trien-5-one]
> 9.00	O=c1[nH]c(CN2CCCCC2)c2c3c(c(-c4cn[nH]c4)sc13)OCCC2 [Example 23, 5-(piperidin-1-ylmethyl)-1-(1H-pyrazol-4-yl)-4,6,7,8-tetrahydro-3H-9-oxa-2-thia-4-azabenzo[cd]azulen-3-one]
> 9.00	O=c1[nH]c(CN2CCC(F)(F)C2)c2c3c(c(-c4cn[nH]c4)sc13)OCCC2 [Example 25, 7-[(3,3-difluoropyrrolidin-1-yl)methyl]-2-(1H-pyrazol-4-yl)-12-oxa-13-thia-6-azatricyclo[6.4.1.0^4,13]trideca-1,4(13),7-trien-5-one]
> 9.00	CC(C)(O)c1[nH]c(=O)c2sc(-c3ccncc3)c3c2c1CCCO3 [Example 29, 5-(2-hydroxypropan-2-yl)-1-(pyridin-4-yl)-4,6,7,8-tetrahydro-3H-9-oxa-2-thia-4-azabenzo[cd]azulen-3-one]
> 9.00	CC(NC1CCC1)c1[nH]c(=O)c2sc(-c3cn[nH]c3)c3c2c1CCCO3 (stereo not shown) [Example 34]
> 9.00	O=C1CCCN1Cc1[nH]c(=O)c2sc(-c3cn[nH]c3)c3c2c1CCCO3 [Example 41, 5-((2-oxopyrrolidin-1-yl)methyl)-1-(1H-pyrazol-4-yl)-4,6,7,8-tetrahydro-3H-9-oxa-2-thia-4-azabenzo[cd]azulen-3-one]
> 9.00	Cc1[nH]c(=O)c2sc(-c3cn[nH]c3)c3c2c1CC(F)(F)CO3 [Example 43, 10,10-difluoro-7-methyl-2-(1H-pyrazol-4-yl)-12-oxa-3-thia-6-azatricyclo[6.4.1.0^4,13]trideca-1,4(13),7-trien-5-one]
> 9.00	CC(C)(O)c1[nH]c(=O)c2sc(-c3cn[nH]c3)c3c2c1CC(F)(F)CO3 [Example 45, 10,10-difluoro-7-(1-hydroxy-1-methyl-ethyl)-2-(1H-pyrazol-4-yl)-12-oxa-3-thia-6-azatricyclo[6.4.1.0^4,13]trideca-1,4(13),7-trien-5-one]
8.00 to 9.00	O=C(c1[nH]c(=O)c2sc(-c3cn[nH]c3)c3c2c1CCCO3)N1CCOCC1 [Example 52, 7-(morpholine-4-carbonyl)-2-(1H-pyrazol-4-yl)-12-oxa-3-thia-6-azatricyclo[6.4.1.0^4,13]-trideca-1,4(13),7-trien-5-one]
8.00 to 9.00	O=C(c1[nH]c(=O)c2sc(-c3cn[nH]c3)c3c2c1CCCO3)N1CC(O)C1 [Example 53, 5-(3-hydroxyazetidine-1-carbonyl)-1-(1H-pyrazol-4-yl)-4,6,7,8-tetrahydro-3H-9-oxa-2-thia-4-azabenzo[cd]azulen-3-one]
> 9.00	CC(=O)N(C)c1[nH]c(=O)c2sc(-c3cn[nH]c3)c3c2c1CCCO3 [Example 56, N-methyl-N-(3-oxo-1-(1H-pyrazol-4-yl)-4,6,7,8-tetrahydro-3H-9-oxa-2-thia-4-azabenzo[cd]azulen-5-yl)acetamide]
> 9.00	N#CCc1[nH]c(=O)c2sc(-c3cn[nH]c3)c3c2c1CCCO3 [Example 75, 2-(3-oxo-1-(1H-pyrazol-4-yl)-4,6,7,8-tetrahydro-3H-9-oxa-2-thia-4-azabenzo[cd]azulen-5-yl)acetonitrile]
> 9.00	COC(=O)Cc1[nH]c(=O)c2sc(-c3cn[nH]c3)c3c2c1CCCO3 [Example 76, methyl 2-(3-oxo-1-(1H-pyrazol-4-yl)-4,6,7,8-tetrahydro-3H-9-oxa-2-thia-4-azabenzo[cd]azulen-5-yl)acetate]
> 9.00	CC(C)(O)Cc1[nH]c(=O)c2sc(-c3cn[nH]c3)c3c2c1CCCO3 [Example 77, 5-(2-hydroxy-2-methylpropyl)-1-(1H-pyrazol-4-yl)-4,6,7,8-tetrahydro-3H-9-oxa-2-thia-4-azabenzo[cd]azulen-3-one]
> 9.00	O=c1[nH]c(CN2CC(O)C2)c2c3c(c(-c4cn[nH]c4)sc13)OCCC2 [Example 78, 7-[(3-hydroxyazetidin-1-yl)methyl]-2-(1H-pyrazol-4-yl)-12-oxa-3-thia-6-azatricyclo [6.4.1.0^4,13]trideca-1,4(13),7-trien-5-one]
> 9.00	O=c1[nH]c(C2(O)CCCC2)c2c3c(c(-c4cn[nH]c4)sc13)OCCC2 [Example 85, 5-(1-hydroxycyclopentyl)-1-(1H-pyrazol-4-yl)-4,6,7,8-tetrahydro-3H-9-oxa-2-thia-4-azabenzo[cd]azulen-3-one]

Source: US20230365584A1, “HETEROCYCLIC PERICONDENSED CDC7 KINASE INHIBITORS FOR THE TREATMENT OF CANCER” (SCHRÖDINGER, INC., priority 2020, published 2023)
